Holding throughout (format): cell-based
Experiment [1] addresses protein kinases (human kinome) (Homo sapiens, UniProt P48730). The settings on record: for logFC CSNK1D: Accession P48730-1, direction down.
Experiment [2] concerns the target T1, protein kinases (human kinome) (Homo sapiens, UniProt Q96D53).
T1 sequence (Q96D53 1-544): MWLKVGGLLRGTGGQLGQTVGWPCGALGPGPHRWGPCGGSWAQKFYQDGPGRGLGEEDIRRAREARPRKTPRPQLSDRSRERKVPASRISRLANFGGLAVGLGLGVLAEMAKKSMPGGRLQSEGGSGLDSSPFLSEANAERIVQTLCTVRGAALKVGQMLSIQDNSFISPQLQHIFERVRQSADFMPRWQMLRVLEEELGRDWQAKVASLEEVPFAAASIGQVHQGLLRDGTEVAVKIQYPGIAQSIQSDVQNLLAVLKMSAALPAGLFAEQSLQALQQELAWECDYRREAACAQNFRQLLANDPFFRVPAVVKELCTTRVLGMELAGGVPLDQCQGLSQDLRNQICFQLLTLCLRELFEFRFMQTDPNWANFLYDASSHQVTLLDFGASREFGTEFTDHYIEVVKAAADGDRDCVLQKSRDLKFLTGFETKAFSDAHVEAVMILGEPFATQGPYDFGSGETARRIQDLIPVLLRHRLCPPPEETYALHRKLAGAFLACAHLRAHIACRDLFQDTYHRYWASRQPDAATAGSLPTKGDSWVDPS
The settings on record: experiment wp137; for logFC: COQ8B (Q96D53-1).

The target of experiment [3] is protein kinases (human kinome) (Homo sapiens, UniProt Q8N165). The settings on record: for logFC of PDIK1L (Q8N165): Experiment wp168; for logFC: PDIK1L (Q8N165), experiment wp168.
For experiment [4], the target named is protein kinases (human kinome) (Homo sapiens, UniProt P51617). To be noted: IRAK1 (P51617).
For experiment [5], the target named is T2, protein kinases (human kinome) (Homo sapiens, UniProt P21709).
T2 sequence (P21709 26-976): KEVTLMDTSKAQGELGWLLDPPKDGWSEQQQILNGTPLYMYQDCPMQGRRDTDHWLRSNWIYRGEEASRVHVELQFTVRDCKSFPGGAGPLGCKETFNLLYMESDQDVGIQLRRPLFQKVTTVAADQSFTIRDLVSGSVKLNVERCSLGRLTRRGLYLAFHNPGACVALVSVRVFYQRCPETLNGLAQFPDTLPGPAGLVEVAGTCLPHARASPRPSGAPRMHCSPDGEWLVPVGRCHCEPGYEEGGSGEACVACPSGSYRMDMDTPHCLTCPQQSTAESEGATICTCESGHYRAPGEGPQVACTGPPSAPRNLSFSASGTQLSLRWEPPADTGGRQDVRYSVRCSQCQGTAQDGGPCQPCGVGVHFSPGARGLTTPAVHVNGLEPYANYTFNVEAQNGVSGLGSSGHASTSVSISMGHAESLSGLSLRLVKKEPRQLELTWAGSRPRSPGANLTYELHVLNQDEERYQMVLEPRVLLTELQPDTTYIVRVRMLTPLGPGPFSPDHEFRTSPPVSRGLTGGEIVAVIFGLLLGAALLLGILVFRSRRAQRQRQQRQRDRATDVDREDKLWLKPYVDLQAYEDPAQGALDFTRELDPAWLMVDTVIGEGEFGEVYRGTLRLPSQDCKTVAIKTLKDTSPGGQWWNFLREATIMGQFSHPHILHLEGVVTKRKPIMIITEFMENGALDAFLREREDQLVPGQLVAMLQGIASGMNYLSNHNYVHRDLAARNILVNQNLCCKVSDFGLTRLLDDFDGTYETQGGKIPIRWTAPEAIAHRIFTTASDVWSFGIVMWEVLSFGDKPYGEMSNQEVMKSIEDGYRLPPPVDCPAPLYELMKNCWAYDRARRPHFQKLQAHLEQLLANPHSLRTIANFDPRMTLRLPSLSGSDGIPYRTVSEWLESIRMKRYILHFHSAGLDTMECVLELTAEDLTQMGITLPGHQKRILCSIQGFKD
The settings on record: for logFC of EPHA1 (P21709): Experiment wp114; for logFC EPHA1: protein EPHA1 (P21709), experiment wp114, direction of change down.

Experiment [6] concerns the target protein kinases (human kinome) (Homo sapiens, UniProt Q9H3S4). The settings on record: TPK1 (Q9H3S4); experiment wp114.
The target in experiment [7] is protein kinases (human kinome) (Homo sapiens, UniProt O43353). The settings on record: for logFC: RIPK2 (O43353-1).
Experiment [8] concerns the target protein kinases (human kinome) (Homo sapiens, UniProt P31751). The settings on record: AKT2 (P31751).
For experiment [9], the target named is protein kinases (human kinome) (Homo sapiens, UniProt Q9Y243). The settings on record: AKT3 (Q9Y243-1).
The mark [10] stands for this setting: experiment wp118, direction down.
[11] abbreviates: experiment wp135, 4 hr, direction down.
Setting [12] is: experiment wp105, direction down.
Setting [13] is: experiment wp107, direction down.

Data on ten compounds can be found in US20240269139A1, “COMPOUNDS FOR TARGETED PROTEIN DEGRADATION OF KINASES” (DANA-FARBER CANCER INSTITUTE, INC., priority 2020, published 2024).

Like-named read-outs stand apart in the source and are kept apart here.

Sequence of protein kinases (human kinome) (Homo sapiens, UniProt P48730) (P48730 whole entry): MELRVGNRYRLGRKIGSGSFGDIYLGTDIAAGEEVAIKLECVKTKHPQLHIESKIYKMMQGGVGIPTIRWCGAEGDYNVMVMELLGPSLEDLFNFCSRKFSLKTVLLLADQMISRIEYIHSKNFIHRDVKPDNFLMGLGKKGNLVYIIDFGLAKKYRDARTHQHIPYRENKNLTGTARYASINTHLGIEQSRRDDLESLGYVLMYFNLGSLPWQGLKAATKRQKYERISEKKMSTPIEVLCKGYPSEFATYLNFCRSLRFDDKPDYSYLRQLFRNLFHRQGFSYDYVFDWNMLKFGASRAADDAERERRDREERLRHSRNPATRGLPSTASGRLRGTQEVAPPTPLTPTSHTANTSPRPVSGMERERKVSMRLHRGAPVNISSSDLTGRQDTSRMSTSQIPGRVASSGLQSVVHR
Sequence of protein kinases (human kinome) (Homo sapiens, UniProt Q8N165) (Q8N165 whole entry): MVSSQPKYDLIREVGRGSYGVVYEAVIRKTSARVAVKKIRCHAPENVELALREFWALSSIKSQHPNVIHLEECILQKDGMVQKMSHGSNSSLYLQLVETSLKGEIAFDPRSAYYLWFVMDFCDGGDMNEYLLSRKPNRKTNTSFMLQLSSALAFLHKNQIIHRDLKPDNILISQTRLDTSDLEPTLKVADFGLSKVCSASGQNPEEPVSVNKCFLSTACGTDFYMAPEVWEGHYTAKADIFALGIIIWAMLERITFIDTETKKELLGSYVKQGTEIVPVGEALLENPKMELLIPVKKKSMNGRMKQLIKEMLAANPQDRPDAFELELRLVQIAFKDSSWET
Sequence of protein kinases (human kinome) (Homo sapiens, UniProt P31751) (P31751 whole entry): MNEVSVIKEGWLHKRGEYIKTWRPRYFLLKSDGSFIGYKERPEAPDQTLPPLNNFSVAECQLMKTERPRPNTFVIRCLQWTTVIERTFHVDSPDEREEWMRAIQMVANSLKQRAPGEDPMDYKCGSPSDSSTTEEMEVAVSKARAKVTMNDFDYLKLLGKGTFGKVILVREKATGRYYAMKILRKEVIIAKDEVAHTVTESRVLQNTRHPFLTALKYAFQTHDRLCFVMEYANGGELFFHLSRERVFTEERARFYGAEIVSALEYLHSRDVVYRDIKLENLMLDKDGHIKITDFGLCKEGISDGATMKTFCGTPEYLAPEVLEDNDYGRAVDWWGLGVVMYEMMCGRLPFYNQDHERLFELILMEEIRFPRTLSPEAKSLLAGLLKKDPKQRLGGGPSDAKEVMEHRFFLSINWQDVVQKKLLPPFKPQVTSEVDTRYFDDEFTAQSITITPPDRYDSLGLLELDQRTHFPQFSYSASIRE
Sequence of protein kinases (human kinome) (Homo sapiens, UniProt P51617) (P51617 whole entry): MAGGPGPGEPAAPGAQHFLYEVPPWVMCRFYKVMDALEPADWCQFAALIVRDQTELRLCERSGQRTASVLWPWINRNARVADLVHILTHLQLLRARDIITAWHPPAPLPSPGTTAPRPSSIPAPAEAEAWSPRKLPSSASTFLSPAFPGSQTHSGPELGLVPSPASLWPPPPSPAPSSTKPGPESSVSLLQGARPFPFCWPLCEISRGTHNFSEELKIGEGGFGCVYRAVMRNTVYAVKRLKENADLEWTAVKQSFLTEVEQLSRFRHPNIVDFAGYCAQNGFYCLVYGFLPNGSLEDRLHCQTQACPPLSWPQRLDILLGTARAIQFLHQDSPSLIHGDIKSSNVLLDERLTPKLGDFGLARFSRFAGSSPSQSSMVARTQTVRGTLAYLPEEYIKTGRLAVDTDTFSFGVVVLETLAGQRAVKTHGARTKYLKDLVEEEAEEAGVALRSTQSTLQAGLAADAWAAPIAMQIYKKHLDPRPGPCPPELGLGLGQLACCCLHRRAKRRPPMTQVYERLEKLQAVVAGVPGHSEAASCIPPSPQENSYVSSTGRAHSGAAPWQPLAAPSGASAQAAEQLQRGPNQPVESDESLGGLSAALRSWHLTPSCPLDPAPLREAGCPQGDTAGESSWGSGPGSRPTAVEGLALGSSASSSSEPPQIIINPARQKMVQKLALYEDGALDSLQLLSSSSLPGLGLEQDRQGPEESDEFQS
Sequence of protein kinases (human kinome) (Homo sapiens, UniProt O43353) (O43353 whole entry): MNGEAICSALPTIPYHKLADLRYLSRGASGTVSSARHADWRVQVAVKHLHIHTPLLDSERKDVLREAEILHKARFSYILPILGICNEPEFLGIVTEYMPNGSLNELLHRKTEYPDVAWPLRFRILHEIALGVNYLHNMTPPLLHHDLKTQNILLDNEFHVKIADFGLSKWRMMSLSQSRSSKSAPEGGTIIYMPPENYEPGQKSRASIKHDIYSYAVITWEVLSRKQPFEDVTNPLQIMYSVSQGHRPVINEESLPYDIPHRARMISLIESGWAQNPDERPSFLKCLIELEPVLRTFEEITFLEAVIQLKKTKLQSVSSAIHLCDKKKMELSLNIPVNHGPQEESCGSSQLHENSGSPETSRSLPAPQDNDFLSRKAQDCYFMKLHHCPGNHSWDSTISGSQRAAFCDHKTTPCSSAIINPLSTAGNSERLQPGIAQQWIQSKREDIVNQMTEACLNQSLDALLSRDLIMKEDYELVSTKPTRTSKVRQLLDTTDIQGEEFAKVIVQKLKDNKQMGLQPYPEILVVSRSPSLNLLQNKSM
Sequence of protein kinases (human kinome) (Homo sapiens, UniProt Q9Y243) (Q9Y243 whole entry): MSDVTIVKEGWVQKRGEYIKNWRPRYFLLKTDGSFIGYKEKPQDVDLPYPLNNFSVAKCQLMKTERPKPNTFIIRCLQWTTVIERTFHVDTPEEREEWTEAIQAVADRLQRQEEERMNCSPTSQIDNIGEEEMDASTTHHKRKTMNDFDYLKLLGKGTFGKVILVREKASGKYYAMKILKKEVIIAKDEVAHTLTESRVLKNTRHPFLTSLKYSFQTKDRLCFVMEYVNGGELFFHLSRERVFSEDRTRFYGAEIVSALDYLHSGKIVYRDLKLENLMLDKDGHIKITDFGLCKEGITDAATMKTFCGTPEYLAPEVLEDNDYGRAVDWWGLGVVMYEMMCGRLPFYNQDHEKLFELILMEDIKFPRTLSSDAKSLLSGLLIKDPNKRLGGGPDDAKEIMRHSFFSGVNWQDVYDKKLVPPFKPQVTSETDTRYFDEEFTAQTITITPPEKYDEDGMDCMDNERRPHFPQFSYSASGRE
Sequence of protein kinases (human kinome) (Homo sapiens, UniProt Q9H3S4) (Q9H3S4 whole entry): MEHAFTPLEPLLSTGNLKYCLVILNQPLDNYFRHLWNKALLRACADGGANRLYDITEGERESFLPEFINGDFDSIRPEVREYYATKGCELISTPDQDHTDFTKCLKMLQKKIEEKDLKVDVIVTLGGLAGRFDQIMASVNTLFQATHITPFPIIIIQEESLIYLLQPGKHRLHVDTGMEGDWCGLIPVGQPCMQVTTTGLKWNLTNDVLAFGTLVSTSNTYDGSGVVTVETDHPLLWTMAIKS

Turning to `CC(C)S(=O)(=O)c1ccccc1Nc1nc(Nc2ccc(N3CCN(CCOCCOCCNC(=O)CNc4cccc5c4C(=O)N(C4CCC(=O)NC4=O)C5=O)CC3)cc2)ncc1Cl` (stereo not shown) [TL12.186], in experiment [1] (experiment wp131), the “logFC CSNK1D” value is recorded as −0.3551 and the “logFC of CSNK1D (P48730-1)” value is listed as −0.3551. Besides, in [2], the logFC is reported as −0.4934 and the “logFC of COQ8B (Q96D53-1)” value was −0.4934.

Take `Cc1ccc(NC(=O)c2cccc(C(F)(F)F)c2)cc1N1Cc2cnc(Nc3ccc(N4CCN(CCCCC(=O)N[C@H](C(=O)N5C[C@H](O)C[C@H]5C(=O)N[C@@H](C)c5ccc(-c6scnc6C)cc5)C(C)(C)C)CC4)nc3)nc2N(C)C1=O` [DB1113]: in experiment [3], the “logFC of PDIK1L (Q8N165)” value is on record as −0.5334 and the logFC is recorded as −0.5334.

As for `CC(C)(C)c1nc(-c2cccc(NS(=O)(=O)c3c(F)cccc3F)c2F)c(-c2ccnc(NCCOCCNC(=O)CCOCCOCCNc3cccc4c3C(=O)N(C3CCC(=O)NC3=O)C4=O)n2)s1` (stereo not shown) [DD.03.106], in [2], the logFC is listed as −0.3442 and the “logFC of COQ8B (Q96D53-1)” value is given as −0.3442.

Regarding `Cc1ccc(C(=O)Nc2ccc(CN3CCN(CCOCCOCCNC(=O)CNc4cccc5c4C(=O)N(C4CCC(=O)NC4=O)C5=O)CC3)c(C(F)(F)F)c2)cc1C#Cc1cnc2cccnn12` (stereo not shown) [TL13.150], the logFC is recorded as −2.834 in [4] (experiment wp081) and −2.834 in [4] (experiment wp081, direction down).

As to `Cc1ncsc1-c1ccc([C@H](C)NC(=O)[C@@H]2C[C@@H](O)CN2C(=O)[C@@H](NC(=O)CCOCCOCCN2CCN(c3ccc(Nc4ncc(Cl)c(Nc5ccccc5S(=O)(=O)C(C)C)n4)cc3)CC2)C(C)(C)C)cc1` [FMF.06.098.1], in experiment [5], the “logFC of EPHA1 (P21709)” value is reported as −0.422 and the “logFC EPHA1” value is given as −0.422. The logFC in [6] is −0.8744.

Regarding `Cc1ccc(NC(=O)c2cccc(C(F)(F)F)c2)cc1N1Cc2cnc(Nc3ccc(N4CCN(Cc5cn(CCCCCOc6cccc7c6C(=O)N(C6CCC(=O)NC6=O)C7=O)nn5)CC4)nc3)nc2N(C)C1=O` (stereo not shown) [DB0646, N-(3-(7-((6-(4-((1-(5-((2-(2,6-Dioxopiperidin-3-yl)-1,3-dioxoisoindolin-4-yl)oxy)pentyl)-1H-1,2,3-triazol-4-yl)methyl)piperazin-1-v)pyridin-3-yl)amino)-1-methyl-2-oxo-1,4-dihydropyrimido[4,5-d]pyrimidin-3(2H)-yl)-4-methylphenyl)-3-(trifluoromethyl)benzamide], the “logFC of RIPK2 (O43353-1)” value is recorded as −0.4779 in experiment [7] (Experiment wp172) and −0.4215 in experiment [7] (experiment wp105). In addition, the logFC in experiment [7] (experiment wp105) was −0.4215; in experiment [7] (experiment wp172) it was −0.4779; in [6] it was −1.144.

With `C[C@@H]1C[C@@H](O)c2ncnc(N3CCN(C(=O)[C@H](CNCCCCCCCCCCc4cccc5c4C(=O)N(C4CCC(=O)NC4=O)C5=O)c4ccc(Cl)cc4)CC3)c21` (stereo partly shown) [INY.03.041.01], the logFC in experiment [8] (experiment wp118) is −2.777; in experiment [8] (setting [10]) it was −2.777; in [8] (experiment wp135, 4 hr), −1.739; in experiment [8] (setting [11]), −1.739; in [9] (experiment wp118) it was −2.769; in experiment [9] (setting [10]), −2.769. Further, the logFC is given as −1.925 in [9] (experiment wp135, 4 hr) and −1.925 in experiment [9] (setting [11]).

Turning to `Cc1ccc(NC(=O)c2cccc(C(F)(F)F)c2)cc1N1Cc2cnc(Nc3ccc(N4CCN(CCCOc5cccc6c5C(=O)N(C5CCC(=O)NC5=O)C6=O)CC4)nc3)nc2N(C)C1=O` (stereo not shown) [DB0662], in experiment [3], the “logFC of PDIK1L (Q8N165)” value is recorded as −0.3272 and the logFC is listed as −0.3272.

`Cc1ccc(C(=O)Nc2ccc(CN3CCN(CCCOCCOCCOCCNC(=O)COc4cccc5c4C(=O)N(C4CCC(=O)NC4=O)C5=O)CC3)c(C(F)(F)F)c2)cc1C#Cc1cnc2cccnn12` (stereo not shown) [SB1.G.187]: the “logFC of RIPK2 (O43353-1)” value in experiment [7] (Experiment wp114) is −0.8828; in experiment [7] (experiment wp105), −0.572. In addition, the logFC in experiment [7] (experiment wp105) is given as −0.572; in [7] (experiment wp114) it was −0.8828; in [4] (experiment wp056), −1.578; in experiment [4] (experiment wp056, direction down) it was −1.578; in [4] (experiment wp103), −1.504; in experiment [4] (experiment wp103, direction down), −1.504. Besides, the logFC in experiment [4] (experiment wp105) is on record as −1.404; in [4] (setting [12]), −1.404; in [4] (experiment wp107), −1.996; in experiment [4] (setting [13]) it was −1.996; in experiment [4] (experiment wp172), −1.572; in experiment [4] (experiment wp172, direction down), −1.572. Moreover, the “logFC of EPHA1 (P21709)” value in [5] was −0.3552. Further, the “logFC EPHA1” value in experiment [5] was −0.3552.

For `CC(C)S(=O)(=O)c1ccccc1Nc1nc(Nc2ccc(N3CCN(CCOCCNC(=O)CNc4cccc5c4C(=O)N(C4CCC(=O)NC4=O)C5=O)CC3)cc2)ncc1Cl` (stereo not shown) [SK.3.91], the logFC is given as −0.8722 in experiment [8] (experiment wp105); −0.8722 in experiment [8] (setting [12]); −0.4141 in [8] (experiment wp107); −0.4141 in experiment [8] (setting [13]); −0.7783 in experiment [9] (experiment wp105); −0.7783 in [9] (setting [12]). For the same compound, the “logFC CSNK1D” value in experiment [1] (experiment wp133, 4 hr) is on record as −0.4585. For the same compound, the “logFC of CSNK1D (P48730-1)” value in experiment [1] (experiment wp133, 4 hr) is reported as −0.4585.
